According to patent publication US20210123061A1, “METHODS AND COMPOSITIONS FOR TREATING INFLAMMATORY DISEASE OR DISORDER” (THE BRIGHAM AND WOMEN'S HOSPITAL, INC., priority 2018, published 2021):
Like-named read-outs stand apart in the source and are kept apart here.

T1: Signal transducer and activator of transcription 1 (STAT1)
T1 chain: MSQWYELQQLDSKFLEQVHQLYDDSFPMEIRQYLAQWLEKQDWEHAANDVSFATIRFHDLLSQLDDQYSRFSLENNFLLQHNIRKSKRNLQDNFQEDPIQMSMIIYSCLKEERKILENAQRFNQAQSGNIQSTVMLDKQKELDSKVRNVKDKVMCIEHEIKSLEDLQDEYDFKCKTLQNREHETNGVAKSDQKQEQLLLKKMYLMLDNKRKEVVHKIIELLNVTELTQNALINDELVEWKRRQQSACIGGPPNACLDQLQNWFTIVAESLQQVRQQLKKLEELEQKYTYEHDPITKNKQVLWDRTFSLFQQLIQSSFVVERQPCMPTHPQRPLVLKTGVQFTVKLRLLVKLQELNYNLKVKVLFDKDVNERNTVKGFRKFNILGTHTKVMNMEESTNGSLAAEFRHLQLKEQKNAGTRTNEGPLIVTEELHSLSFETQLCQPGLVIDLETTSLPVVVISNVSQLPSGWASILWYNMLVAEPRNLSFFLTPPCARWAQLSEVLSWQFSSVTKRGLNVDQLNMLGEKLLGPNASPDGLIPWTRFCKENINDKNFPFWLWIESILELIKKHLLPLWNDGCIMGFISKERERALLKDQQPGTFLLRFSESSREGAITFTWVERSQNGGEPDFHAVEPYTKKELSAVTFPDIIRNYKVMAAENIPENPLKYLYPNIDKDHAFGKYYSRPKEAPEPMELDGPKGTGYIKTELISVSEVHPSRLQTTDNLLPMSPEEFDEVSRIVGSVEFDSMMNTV


Assays:
[1] = test system: RSK1 (S230p) phosphorylation site; conditions: P100 dataset, cited from earlier work
[2] = test system: RSK1 (RPS6KA1) gene expression; conditions: cited from earlier work; for RSK1 (agents that alter RSK1 expression): Table 1, pert_type trt_cp = small molecule, trt_sh = shRNA; for RPS6KA1 (small molecules that inhibit RSK1 expression): Table 2
[3] = biological target: T1, Signal transducer and activator of …

Row | Molecule | RSK1 (agents that alter RSK1 expression) [2] | also measured
1 | Cc1c[nH]c(-c2cnc(NCCNc3ccc(C#N)cn3)nc2-c2ccc(Cl)cc2Cl)n1 [CHIR-99021] | – | modulation of RSK1-S230p phosphorylation ([1]; YAPC cell line): modulated
2 | CC1=NN(c2ccc(C(=O)O)cc2)C(=O)/C1=C/c1ccc(-c2cc(C)c(C)cc2[N+](=O)[O-])o1 [BRD-K68548958] | −0.99 | –
3 | CC(C(=O)Nc1cccc(/N=C/c2c(O)ccc3ccccc23)c1)c1ccccc1 (stereo not shown) [salermide] | −0.98 | RPS6KA1 (small molecules that inhibit RSK1 expression) [2]: −0.98
4 | CN(C)C(=O)c1cccc(-c2cccc(-c3nc(C(=O)NC4CCCCC4)cc4c3[C@@H](CCO)N([S@+]([O-])C(C)(C)C)C4)c2)c1 [BRD-K08663380] | −0.65 | –
5 | C=C[C@](C)(O)CC/C=C(\C)C(=O)O[C@H]1[C@H](O)[C@@H](O)[C@H](O[C@@](C)(C=C)CC/C=C(\CO)C(=O)O[C@H]2C[C@]3(C(=O)O[C@@H]4O[C@H](CO)[C@@H](O)[C@H](O)[C@H]4O[C@@H]4O[C@@H](C)[C@H](O[C@@H]5O[C@@H](CO)[C@H](O)[C@H]5O)[C@@H](O[C@@H]5O[C@H](CO)[C@@H](O)[C@H](O)[C@H]5O)[C@H]4O)[C@H](O)C[C@]4(C)C(=CC[C@@H]5[C@@]6(C)CC[C@H](O[C@@H]7O[C@H](CO[C@@H]8O[C@H](C)[C@H](O)[C@H](O)[C@H]8O[C@@H]8OC[C@@H](O)[C@H](O)[C@H]8O)[C@@H](O)[C@H](O)[C@H]7NC(C)=O)C(C)(C)[C@@H]6CC[C@]54C)[C@@H]3CC2(C)C)O[C@@H]1C [avicin-g] | −1.17 | –
6 | CCNC(=O)c1noc(-c2cc(C(C)C)c(O)cc2O)c1-c1ccc(CN2CCOCC2)cc1 [NVP-AUY922] | −1.23 | –
7 | C=CCNC1=C2C[C@@H](C)C[C@H](OC)[C@H](O)[C@@H](C)/C=C(\C)[C@H](OC(N)=O)[C@@H](OC)/C=C\C=C(/C)C(=O)NC(=CC1=O)C2=O [tanespimycin, 17-N-allylamino-17-demethoxygeldanamycin] | – | RPS6KA1 (small molecules that inhibit RSK1 expression) [2]: −1.17
8 | C/C=C/C/C=C/CCC(=O)[C@H]1O[C@H]1C(N)=O [cerulenin, (2R,3S)-3-[(4E,7E)-1-Oxo-4,7-nonadien-1-yl]-2-oxiranecarboxamide] | −1.40 | RPS6KA1 (small molecules that inhibit RSK1 expression) [2]: −1.40
9 | CCCC[C@@H](C)/C=C(C)/C=C(\C)C(=O)NC1=C[C@@](O)(/C=C/C=C/C=C/C(=O)NC2=C(O)CCC2=O)C2O[C@@H]2C1=O (stereo partly drawn) [manumycin-a, N-[(1S,5S,6R)-5-hydroxy-5-[(1E,3E,5E)-7-[(2-hydroxy-5-oxo-1-cyclopenten-1-yl)amino]-7-oxo-1,3,5-heptatrien-1-yl]-2-oxo-7-oxabicyclo [4.1.0]hept-3-en-3-yl]-2E,4E,6R-trimethyl,2,4-decadienamide] | −1.48 | RPS6KA1 (small molecules that inhibit RSK1 expression) [2]: −1.48
10 | O=C1[C@H](Cc2ccc(O)cc2)N2C(=O)CCN(C(=O)NCc3ccccc3)[C@H]2CN1Cc1cccc2ccccc12 [BRD-K73261812] | −0.97 | –
11 | O=C(CCCCCCC(=O)Nc1ccccc1)NO [vorinostat] | – | modulation of RSK1-S230p phosphorylation ([1]; YAPC cell line): modulated
12 | CN[C@@H]1C[C@H]2O[C@@](C)([C@@H]1OC)n1c3ccccc3c3c4c(c5c6ccccc6n2c5c31)C(=O)NC4 [Staurosporine] | – | modulation of RSK1-S230p phosphorylation ([1]; MCF7 cell line): modulated
13 | C=CCn1c(=O)c2cnc(Nc3ccc(N4CCN(C)CC4)cc3)nc2n1-c1cccc(C(C)(C)O)n1 [MK-1775] | – | RSK1 expression effect under various conditions ([2]; FIG. 20): U937-specific effect
14 | c1ccc2c(-c3cnn4cc(-c5ccc(N6CCNCC6)cc5)cnc34)ccnc2c1 [LDN-193189] | −1.38 | –
15 | Oc1cccc(-c2nc(N3CCOCC3)c3oc4ncccc4c3n2)c1 [PI-103] | −0.54 | –
16 | FC(F)c1nc2ccccc2n1-c1nc(N2CCOCC2)nc(N2CCOCC2)n1 [ZSTK-474] | −0.73 | –
17 | CC(C)C[C@@H](C(=O)N[C@H](C(=O)OC1CCCC1)c1ccccc1)[C@H](O)C(=O)NO [tosedostat, αS-[[(2R)-2-[(1S)-1-hydroxy-2-(hydroxyamino)-2-oxoethyl]-4-methyl-1-oxopentyl]amino]-benzeneacetic acid, cyclopentyl ester] | −0.96 | RPS6KA1 (small molecules that inhibit RSK1 expression) [2]: −0.96
18 | O=C(c1ccc(C(=O)N2CCC(N3CCCC3)CC2)c(Nc2ccccc2)c1)N1CCC(N2CCCC2)CC1 [UNC-1215] | – | modulation of RSK1-S230p phosphorylation ([1]; PC3 cell line): modulated
19 | C[S+]([O-])CCCCN=C=S (stereo not shown) [sulforaphane] | −0.50 | –
20 | C=C1[C@@H](O)[C@@H]2O[C@]3(CC[C@H](/C=C/[C@@H](C)[C@@H]4CC(C)=C[C@@]5(O[C@H](C[C@@](C)(O)C(=O)O)CC[C@H]5O)O4)O3)CC[C@H]2O[C@@H]1[C@@H](O)C[C@H](C)[C@H]1O[C@@]2(CCCCO2)CC[C@H]1C [okadaic acid] | – | modulation of RSK1-S230p phosphorylation ([1]; YAPC cell line): modulated
21 | Ribosomal S6 Kinase-1 (RSK1), recombinant (protein) MEQDPKPPRLRLWALIPWLPRKQRPRISQTSLPVPGPGSGPQRDSDEGVLKEISITHHVKAGSEKADPSHFELLKVLGQGSFGKVFLVRKVTRPDSGHLYAMKVLKKATLKVRDRVRTKMERDILADVNHPFVVKLHYAFQTEGKLYLILDFLRGGDLFTRLSKEVMFTEEDVKFYLAELALGLDHLHSLGIIYRDLKPENILLDEEGHIKLTDFGLSKEAIDHEKKAYSFCGTVEYMAPEVVNRQGHSHSADWWSYGVLMFEMLTGSLPFQGKDRKETMTLILKAKLGMPQFLSTEAQSLLRALFKRNPANRLGSGPDGAEEIKRHVFYSTIDWNKLYRREIKPPFKPAVAQPDDTFYFDTEFTSRTPKDSPGIPPSAGAHQLFRGFSFVATGLMEDDGKPRAPQAPLHSVVQQLHGKNLVFSDGYVVKETIGVGSYSECKRCVHKATNMEYAVKVIDKSKRDPSEEIEILLRYGQHPNIITLKDVYDDGKHVYLVTELMRGGELLDKILRQKFFSEREASFVLHTIGKTVEYLHSQGVVHRDLKPSNILYVDESGNPECLRICDFGFAKQLRAENGLLMTPCYTANFVAPEVLKRQGYDEGCDIWSLGILLYTMLAGYTPFANGPSDTPEEILTRIGSGKFTLSGGNWNTVSETAKDLVSKMLHVDPHQRLTAKQVLQHPWVTQKDKLPQSQLSHQDLQLVKGAMAATYSALNSSKPTPQLKPIESSILAQRRVRKLPSTTL | – | phosphorylation of STAT1 at Ser727 in vitro (kinase reaction, immunoblot) [3]: RSK1 is capable of phosphorylating STAT1 at Ser727 in vitro
